These are literature values, as cited in US7112576B1, “Compositions and methods for cryopreservation of peripheral blood lymphocytes” (Regents of the University of Minnesota, priority 1999, dated 2006).

In this series the test system is patients who received cryopreserved autologous cell grafts. The conditions noted are these: attributed to the infusion of DMSO.

Consider `C[S+](C)[O-]` [DMSO, dimethylsulfoxide], for which the “patients exhibiting decreased heart rates” value is on record as 98%, the patients exhibiting dyspnea is on record as 83% and the “patients exhibiting transient hypertension” value is listed as 96%.
